Assay results as given in patent US20060211705A1, “'N-(2-chloro-6-methylphenyl)-2-[[6-[4-(2-hydroxyethyl)-1-piperazinyl]-2-methyl-4-pyrimidinyl]amino]-5-thiazolecarboxamides metabolites” (priority 2005, published 2006).

Assay: Metabolite profile of [14C] compound (I) in rat hepatocyte incubations
Type: in vitro ADME, Sprague-Dawley rat
Settings: (Ia) 20 μM, 3 h, 37° C., ~2 million cells/mL; relative distribution in radiochromatographic profile
Procedure: The compound of formula (I) was used as the [^14C] compound (Ia) (30.4 μCi/mg, radiochemical purity 99.2%), as the monohydrate of the free base. The C-14 label was on the carbon in the 2-position of the thiazole ring.
Freshly isolated rat hepatocyte preparations were prepared from one male Sprague-Dawley rat. Rat Hepatocytes were prepared according to a standard procedure (Seglen, PO. Preparation of isolated rat liver cells. Methods Cell Biol., 1976, 13: 29-83). Cryopreserved cynomolgus monkey hepatocytes (male, pooled, n=6) and human hepatocytes (3 individual preparation) were purchased from In Vitro Technologies (Baltimore, Md.). Microsomes from male SD Rats (pooled, n=200, 20 mg/mL) and male cynomolgus monkeys (pooled, n=8, 20 mg/mL) were obtained from Xenotech LLC, Kansas City, Kans. Human liver microsomes (male, pooled, n=38) were from BD-Gentest, Woburn, Mass.
A 6 mM stock solution of the compound of formula (Ia) (the [^14C] of the compound of formula (I) was prepared at by dissolving 3.7 mg of the compound of formula (Ia) into 1:1 acetonitrile/DMSO. The 2 mM stock solution of the compound of formula (Ia) was obtained by diluting an aliquot of the 6 mM stock solution 3-fold with acetonitrile.
Rat hepatocyte suspensions were provided at concentrations of 9.1 million cells/mL with a viability of 90%. The cell suspension was diluted accordingly with modified Krebs-Henseleit buffer to give a final concentration of 2 million cells/mL.
Viability of the hepatocytes was checked using a Trypan Blue exclusion assay and a hemocytometer. A mixture of 0.1 mL of the hepatocyte suspension and 0.1 mL of trypan blue solution were diluted with 0.8 mL of Krebs-Henseleit buffer. The solution was gently mixed and plated onto a Levy hemocytometer (Hausser Scientific) and the viable cells (unstained) were counted under a light microscope. The viability of the hepatocytes ranged from 77% to 90% at the beginning of the incubations.
Hepatocyte incubations were conducted at 37° C. for 3 h in a NAPCO CO2 6000 incubator (VWR Scientific Products) under a 5% CO2 atmosphere using an orbital shaker at 90 rpm. For each incubation, the final concentration of compound (Ia) was 20 μM and the hepatocyte concentrations were ˜2 million cells/mL. A control incubation, in the absence of hepatocytes, was also performed for 3 h. The incubations were stopped by adding one volume of ice-cold acetonitrile. Each 0.5 mL incubation contained 0.1 M potassium phosphate buffer (pH 7.4), 2.5 mM MgCl2, 2 mg/mL microsomal protein, and 2.0 mM NADPH. The final substrate concentration was 20 μM. The mixtures were incubated in a shaking water bath at 37° C. for 15 min. Control incubations in the absence of microsomes or NADPH were performed for each species. The reactions were stopped with the addition of 1 mL of ice-cold acetonitrile.
HPLC was performed on a Waters Alliance™ system equipped with Waters 2695 pumps and a photodiode array detector (Waters 2996). A Phenomenex Synergy Polar-RP® column (4.6×250 mm, 5 micron) was used for metabolite separation. All HPLC analyses were performed at 1 mL/min flow rate at room temperature. Two HPLC mobile phase and gradient systems were used because all metabolites could not be completely separated on either of the individual HPLC systems. The first system consisted of (A) water with 0.1% formic acid and (B) acetonitrile with 0.1% formic acid as mobile phase. The linear gradient was as follows: 0 min, 20% B; 1 min, 20% B; 41 min, 35% B; 42 min, 90% B; 44 min, 90% B. The column was re-equilibrated at 20% B for 6 min before the next injection. The second HPLC system was used to separate certain co-eluting metabolites that could not be separated by the first system. The mobile phase consisted of (A) water with 0.1% triflouroacetic acid (TFA) and (B) acetonitrile with 0.1% TFA. The gradient was as follows: 0 min, 20% B; 1 min, 20% B; 51 min, 35% B; 52 min, 90% B; 54 min 90% B. The column was equilibrated at 20% B for 6 min prior to the next injection. […]

% of Radioactivity in Hepatocytes, Rat [%]	SMILES
1.1	Cc1nc(Nc2ncc(C(=O)Nc3c(C)cc(O)cc3Cl)s2)cc(N2CCN(CCO)CC2)n1 [M20 (V)]
88.8	Cc1nc(Nc2ncc(C(=O)Nc3c(C)cccc3Cl)s2)cc(N2CCN(CCO)CC2)n1 [Parent (I), N-(2-Chloro-6-methylphenyl)-2-[[6-[4-(2-hydroxyethyl)-1-piperazinyl]-2-methyl-4-pyrimidinyl]amino]-5-thiazolecarboxamide]
1.6	Cc1nc(Nc2ncc(C(=O)Nc3c(C)cccc3Cl)s2)cc(N2CCNCC2)n1 [M4 (II)]
1.1	Cc1nc(Nc2ncc(C(=O)Nc3c(Cl)cccc3CO)s2)cc(N2CCN(CCO)CC2)n1 [M24 (VI), N-(2-chloro-6-(hydroxymethyl)phenyl)-2-(6-(4-(2-hydroxyethyl)piperazin-1-yl)-2-methylpyrimidin-4-ylamino)thiazole-5-carboxamide]
2.7	Cc1nc(Nc2ncc(C(=O)Nc3c(C)cccc3Cl)s2)cc(N2CC[N+]([O-])(CCO)CC2)n1 [M5 (III)]
4.9	Cc1nc(Nc2ncc(C(=O)Nc3c(C)cccc3Cl)s2)cc(N2CCN(CC(=O)O)CC2)n1 [M6 (IV), 2-(4-(6-(5-((2-Chloro-6-methylphenyl)carbamoyl)thiazol-2-ylamino)-2-methylpyrimidin-4-yl)piperazin-1-yl)acetic acid]
